Measured values published in paper PMC12406652 (Antimicrobial Agents and Chemotherapy, 2025).

What was measured:
[1] = human, in vivo; for AUCinf, geometric LS mean, Reference / Cmax, geometric LS mean, Reference: 400 mg
[2] = human, in vivo
[3] = in vivo

Nc1nc(/C(=C/CC(=O)O)C(=O)N[C@@H]2C(=O)N3C(C(=O)O)=CCS[C@H]23)cs1 (relative stereo) [Cis-ceftibuten, cis-ceftibuten]
AUCinf, geometric LS mean, Test [1]: 79030 ng·h/mL
Cmax, geometric LS mean, Test [1]: 15410 ng/mL
AUCinf, geometric LS mean, Reference [1]: 90090 ng·h/mL
Cmax, geometric LS mean, Reference [1]: 17560 ng/mL
Change in geometric mean AUCtau from the first to the last dose [2]: 44-52%
Fe0-8 recovered in urine, of the last dose [3]: 50-68%

Nc1nc(/C(=C\CC(=O)O)C(=O)N[C@@H]2C(=O)N3C(C(=O)O)=CCS[C@H]23)cs1 (relative stereo) [Trans-ceftibuten, trans-ceftibuten]
AUCinf, geometric LS mean, Test [1]: 8946 ng·h/mL
Cmax, geometric LS mean, Test [1]: 1319 ng/mL
AUCinf, geometric LS mean, Reference [1]: 10400 ng·h/mL
Cmax, geometric LS mean, Reference [1]: 1552 ng/mL
Change in geometric mean AUCtau from the first to the last dose [2]: 64-75%
Fe0-8 recovered in urine, of the last dose [3]: 20-23%
